Test results published in the NIST ThermoML archive (doi:10.1016/j.jct.2014.07.003).

Test: mn = molality of the nth substance listed, in mol/kg
Conditions: 99 kPa, Liquid, Alternating current cell with electrodes

CCCCCCCCCCCC[N+](C)(C)C.[Br-] [dodecyltrimethylammonium bromide] + O
electrical conductivity [S/m]
Conditions	288.15 K	293.15 K	298.15 K	303.15 K
m1 = 0.0015	0.0137	0.014	0.0143	0.0144
m1 = 0.003	0.0265	0.027	0.0273	0.0278
m1 = 0.0045	0.039	0.0397	0.0412	0.0413
m1 = 0.0059	0.05	0.052	0.053	0.0545
m1 = 0.0073	0.061	0.0635	0.0659	0.067
m1 = 0.0087	0.0725	0.0748	0.0769	0.079
m1 = 0.0101	0.0837	0.086	0.089	0.0895
m1 = 0.0116	0.095	0.0975	0.1	0.101
m1 = 0.013	0.106	0.108	0.11	0.112
m1 = 0.0144	0.115	0.118	0.12	0.122
m1 = 0.0157	0.124	0.126	0.128	–
m1 = 0.017	0.129	0.131	0.132	–
m1 = 0.0184	0.132	0.133	0.134	–
m1 = 0.0197	0.135	0.136	0.136	–
m1 = 0.021	0.137	0.138	0.139	–
m1 = 0.0223	0.139	0.14	0.142	–
m1 = 0.0236	0.141	0.142	0.143	–
m1 = 0.0249	0.143	0.144	0.146	–
m1 = 0.0274	0.146	0.149	0.15	–
m1 = 0.0286	0.148	0.151	0.153	–
m1 = 0.0298	0.15	0.154	0.156	–
